From patent US6368788B1 (priority 1987, dated 2002) come the findings set out here.

Like-named read-outs stand apart in the source and are kept apart here. Marks after values point to notes of the source that are not given here.

One series deals with Staphylococci. Put plainly: Antibiotic sensitivity (doubling-dilution, MIC-2000) of patient isolates before and after Stage 1. The class given is cell-based. The procedure:
Antibiotics were administered according to established dosages and routes: i.e., penicillin, Ampicillin, oxacillin, tetracycline, erythromycin, garamycin; administered by intramuscular route. Antibiotics were chosen according to the antibiotic sensitivity of the Staphylococci isolated from the respective patients. (Antibiotic sensitivity was determined by testing staphylococcal isolates for their sensitivity in an antibiotic sensitivity doubling-dilution assay with the aid of the semi-automatic MIC-2000 system, Dynatech, USA).
Staphylococci were isolated from patients before and after treatment in Stage 1 with L-Glu-L-Trp in order to determine whether a favorable reversal of T-lymphocyte immunodeficiency might lead to a change in the antibiotic sensitivity. The isolated bacterial colonies following Stage I were typed as follows: namely, in 16 patients S. aureus, in 34, S. epidermidis, in 2 saprophytic Staphylococci. In all cases the same types of Staphylococci were isolated following treatment with L-Glu-L-Trp, but in 4 patients the predominant Staphylococci in the isolates changed from S. aureus to S. epidermidis (n=2), and saprophytic Staphylococci (n=2).
Antibiotic sensitivity of Staphylococci were determined by doubling-dilution methods with the aid of the semiautomatic MIC-2000 system (Dynatech, USA).

The subject of a further series is E. coli. As to the kind of experiment: Survival after acute peritonitis with LD100 dose of E. coli. It counts as in vivo, mice. Conditions: 1 MED.
For series [1], the system named is Staphylococcus aureus. As to the kind of experiment: Survival after acute peritonitis with LD100 dose of antibiotic-resistant Staphylococcus aureus, prophylactic treatment. Conditions: for Percentage Survivors: 1 MED.
The subject of series [2] is Staphylococcus aureus. Put plainly: Survival after Staphylococcus aureus peritonitis, therapeutic treatment 1 hour after challenge. The class given is in vivo, mice. Conditions: 1 MED. The procedure:
EXAMPLES 32-34, above, test substance (i.e., L-Glu-L-Trp alone or in combination with antibiotic, or antibiotic alone) was injected sc, ip, po one hour after the bacterial challenge.

The test system of a further series is YAC-1 target cells. As to the kind of experiment: NK cytotoxic activity of splenocytes on YAC-1 target cells. The class given is in vivo, C3H/HeJ mice.
In series [3] the test system is Mycobacterium tuberculosis. Set-up: species or system human. Conditions: in vivo.
A further series relates to C. albicans. The class given is in vivo, mice.
The next series deals with Rauscher MuLV. As to the kind of experiment: Anti-viral response to Rauscher MuLV. It counts as in vivo, mice. The source says:
Innate mechanisms of anti-viral immunity are important to survival of the host. The Rauscher murine leukemia virus (MuLV) is an example of a highly virulent animal retrovirus infection, first isolated and characterized by Dr. Rauscher from BALB/c mouse tissues in 1962. […] The virus employed in present GLP/blinded study was a murine leukemia complex known to induce progressive erythroleukemia in mice (i.e., Rauscher MuLV and replication-defective Rauscher spleen focus-forming virus). Disease manifested within about 6 days with death by about 50 days. Measurements of splenomegaly, blood reverse transcriptase, virus plaque assays (i.e., XC-plaque assay for viremia using SC-1 host cells) and serum anti-viral antibody titers were used to assess infection. Spleens achieved about 2.0 grams in weight within 21 days of infection, as compared with a normal spleen weights in an uninfected animals of about 0.1 gram.
Mice were inoculated with Rauscher MuLV complex (0.1 ml/7.8×10^4 PFU/mL) on day 0 and sacrificed on day 21. Test groups were comprised of 10 mice and control groups 6 mice. Control articles included saline and AZT (in drinking water at about 1.25 mg/mouse/day≈63 mg/kg/day/mouse). […] A non-infected group of mice was also sacrificed on day 21 to provide normal control values.
In EXAMPLE 38, SC-1 cells were originally derived from murine embryos, and XC cells (a rat tumor cell line induced by Rous Sarcoma Virus) were obtained from the ATCC in Rockville, Md.

In the next series the test system is Pseudomonas aeruginosa. Put plainly: Survival after acute peritonitis with LD100 dose of Pseudomonas aeruginosa. The class given is in vivo, mice. Conditions: 1 MED.
A further series has as its system hepatitis B. As to the kind of experiment: Children with chronic persistent hepatitis B. The class given is in vivo, human. The procedure: In accord with a USSR Ministry of Health decision 125 children suffering with chronic persistent hepatitis B were entered into this trial over a two month period. Group 1 consisted of 35 children who received decaris immunomodulatory therapy; Group 2, 38 children who received thymalin treatments; Group 3, […] who received L-Glu-L-Trp; and, Group 4, 32 children who received only conventional symptom specific therapy.
L-Glu-L-Trp was administered at a dose of 2 μg/kg of body mass, im, daily for […], and a repeat (identical) course of treatment was administered 10 days after termination of the first course.

Where [4] appears, read: After Stage 1 Treatment (L-Glu-L-Trp only).
[5] abbreviates: 25 mg/kg, days 0, 1, 2, 3, and 4.
The mark [6] stands for this setting: 50 mg/kg, days 0, 1, 2, 3, and 4.
[7] abbreviates: 100 mg/kg, days 0, 1, 2, 3, and 4.
Where [8] appears, read: 200 mg/kg, days 0, 1, 2, 3, and 4.
[9] abbreviates: 20 mg/kg, days 0, 1, 2, 3, and 4 (Group 8).
[10] abbreviates: 20 mg/kg, days −2, −1, 0, +1, and +2 (Group 10).

For the compound `Cc1onc(-c2ccccc2)c1C(=O)N[C@@H]1C(=O)N2[C@@H]1SC(C)(C)[C@@H]2C(=O)O` [Oxacillin], the “Mean minimum inhibitory concentration (MIC)” value in the series with Staphylococci (setting [4]) was determined as 1.56 ± 0.45 µg/mL; in the series with Staphylococci (Before Treatment) it was 5.11 ± 0.63 µg/mL.

For `CC1(C)S[C@@H]2[C@H](NC(=O)[C@H](N)c3ccccc3)C(=O)N2[C@H]1C(=O)O` [Ampicillin, reference compound], the “Mean minimum inhibitory concentration (MIC)” value with Staphylococci (setting [4]) is 2.64 ± 0.60 µg/mL; with Staphylococci (Before Treatment), 8.10 ± 0.49 µg/mL. Further, the “Percentage Survivors” value is 33.3* % in the series on E. coli (24 hours after injection); 22.2* % in the series on E. coli (48 hours after injection); 22.2* % in the series on E. coli (72 hours after injection); 75* % with Staphylococcus aureus [1] (24 hours); 44.4* % with Staphylococcus aureus [1] (48 hours); 30.6* % with Staphylococcus aureus [1] (72 hours). Also, the “Percentage Survivors” value in the series with Staphylococcus aureus [2] (24 hours) is on record as 75.0* %; in the series with Staphylococcus aureus [2] (48 hours), 44.4* %; in the series on Staphylococcus aureus [2] (72 hours) it was 30.6* %. Further, in the series with Staphylococcus aureus [1] (ip one hour after bacterial challenge), the “Mean effective dose (MED) for 100% survival after one LD50 dose of methicillin-sensitive staphylococci” value is 100 mg/kg.

On to `CC1(C)S[C@@H]2[C@H](NC(=O)Cc3ccccc3)C(=O)N2[C@H]1C(=O)O` [Penicillin], for which the “Mean minimum inhibitory concentration (MIC)” value in the series on Staphylococci (setting [4]) is 2.52 ± 0.70 µg/mL; with Staphylococci (Before Treatment) it was 9.45 ± 0.28 µg/mL.

`O=C(N[C@H](CO)[C@H](O)c1ccc([N+](=O)[O-])cc1)C(Cl)Cl` [Levomycetin]: the entries for the “Mean minimum inhibitory concentration (MIC)” value in the series with Staphylococci (setting [4]) and in the series on Staphylococci (Before Treatment) were 4.58 ± 0.67 µg/mL and 9.17 ± 0.36 µg/mL, respectively.

`Cc1nnc(SCC2=C(C(=O)O)N3C(=O)[C@@H](NC(=O)Cn4cnnn4)[C@H]3SC2)s1` [Kefzol]: the “Mean minimum inhibitory concentration (MIC)” value with Staphylococci (setting [4]) worked out at 1.86 ± 0.93 µg/mL; in the series on Staphylococci (Before Treatment), 4.61 ± 0.87 µg/mL.

In the case of `NC[C@H]1O[C@H](O[C@H]2[C@H](O)[C@@H](O[C@H]3O[C@H](CO)[C@@H](O)[C@H](N)[C@H]3O)[C@H](N)C[C@@H]2N)[C@H](O)[C@@H](O)[C@@H]1O` [Kanamycin], the “Mean minimum inhibitory concentration (MIC)” value in the series with Staphylococci (setting [4]) is 2.09 ± 0.54 µg/mL; in the series with Staphylococci (Before Treatment), 6.32 ± 0.58 µg/mL.

In the case of `O=P1(N(CCCl)CCCl)NCCCO1` (centres unmarked) [cyclophosphamide, Cyclophosphamide, reference compound], in the series with YAC-1 target cells (dose 50 (μg/kg), reference treatment), the “% Cytotoxicity (mean +/− S.D.)” value was determined as 6.4 ± 0.7%. Moreover, the “Cytotoxicity Change (%)” value with YAC-1 target cells (dose 50, vs saline) is reported as −25 ↓ %. Moreover, in the series with YAC-1 target cells (reference treatment), the NK activity result is recorded as “decreased NK activity”.

`c1ccc([C@H]2CN3CCSC3=N2)cc1` [decaris]: in series [3], the “Considerable Improvement, % of patients” value is 5%; the “Considerable Improvement, No. of patients” value was determined as 1; the “Improvement, % of patients” value came out at 82%; the “Improvement, No. of patients” value came to 18. Further, in series [3], the “No Change, % of patients” value is given as 13%; the “No Change, No. of patients” value was found to be 3; the “Patients with closure of degeneration foci and cavities in the lungs” value is on record as 10; the “Patients with closure of foci and cavities” value was 45%. Moreover, in [3], the “Patients with “considerable improvement”” value is recorded as 5%, the “Patients with “improvement”” value was determined as 18 and the Response rate stood at 86%.

On to `O=C(Cc1cccs1)N[C@@H]1C(=O)N2C(C(=O)[O-])=C(C[n+]3ccccc3)CS[C@H]12` [Ceporin], for which the “Mean minimum inhibitory concentration (MIC)” value amounted to 1.82 ± 0.67 µg/mL in the series on Staphylococci (setting [4]) and 5.69 ± 0.86 µg/mL in the series with Staphylococci (Before Treatment).

Regarding `C[C@@H]1[C@H](O)[C@@H](C)/C=C/C=C/C=C/C=C/C=C/C=C/C=C/[C@H](O[C@@H]2O[C@H](C)[C@@H](O)[C@H](N)[C@@H]2O)C[C@@H]2O[C@](O)(C[C@@H](O)C[C@@H](O)[C@H](O)CC[C@@H](O)C[C@@H](O)CC(=O)O[C@H]1C)C[C@H](O)[C@H]2C(=O)O` [Amphotericin, reference compound], the “Germ Tube (%)” value in the series on C. albicans (0.063 mg/kg) is listed as 20* %; in the series with C. albicans (0.125 mg/kg) it was 17* %; in the series on C. albicans (0.25 mg/kg), 14* %; with C. albicans (0.5 mg/kg), 3* %; in the series on C. albicans (1 mg/kg), 1* %.

For the compound `Cc1cn([C@H]2C[C@H](N=[N+]=[N-])[C@@H](CO)O2)c(=O)[nH]c1=O` [AZT, reference compound], the “Reduction Splenomegaly (%)” value came out at 46% in the series on Rauscher MuLV (setting [5]), 33% with Rauscher MuLV (setting [6]), 52% in the series on Rauscher MuLV (setting [7]) and 46% with Rauscher MuLV (setting [8]). For the same compound, the “Spleen Weight (mean ± SD)” value was determined as 0.31 ± 0.05 in the series on Rauscher MuLV (setting [5]), 0.35 ± 0.17 in the series on Rauscher MuLV (setting [6]), 0.29 ± 0.02 in the series on Rauscher MuLV (setting [7]) and 0.31 ± 0.09 with Rauscher MuLV (setting [8]).

Take `Cc1nnc(SCC2=C(C(=O)O)N3C(=O)[C@@H](NC(=O)Cn4cnnn4)[C@H]3SC2)s1` [Cephamezine]: the entries for the “Mean minimum inhibitory concentration (MIC)” value with Staphylococci (setting [4]) and in the series on Staphylococci (Before Treatment) were 1.33 ± 0.53 µg/mL and 3.52 ± 0.94 µg/mL, respectively.

Take `CC(=O)OCC1=C(C(=O)O)N2C(=O)[C@@H](NC(=O)Cc3cccs3)[C@H]2SC1` [Keflin]: the “Mean minimum inhibitory concentration (MIC)” value in the series on Staphylococci (setting [4]) came to 1.86 ± 0.69 µg/mL; with Staphylococci (Before Treatment) it was 4.49 ± 0.93 µg/mL.

Consider `CN[C@@H]1[C@@H](O)[C@@H](O[C@@H]2[C@@H](O)[C@H](O[C@H]3OC(CN)=CC[C@H]3N)[C@@H](N)C[C@H]2N)OC[C@]1(C)O` [Cisomycin], for which the figures for the “Mean minimum inhibitory concentration (MIC)” value with Staphylococci (setting [4]) and in the series with Staphylococci (Before Treatment) were 1.59 ± 0.58 µg/mL and 3.46 ± 0.90 µg/mL, respectively.

As for Gentamycin [reference compound], the figures for the “Mean minimum inhibitory concentration (MIC)” value in the series on Staphylococci (setting [4]) and in the series with Staphylococci (Before Treatment) were 1.32 ± 0.49 µg/mL and 5.47 ± 0.92 µg/mL, respectively. The “Percentage Survivors” value with Pseudomonas aeruginosa (24 hours after injection), with Pseudomonas aeruginosa (48 hours after injection) and with Pseudomonas aeruginosa (96 hours after injection) was 27.8* % each time.

As for `[H]/N=C(/N)N[C@H]1[C@H](O)[C@@H](O)[C@H](O[C@@H]2O[C@@H](C)[C@](O)(C=O)[C@H]2O[C@@H]2O[C@@H](CO)[C@H](O)[C@@H](O)[C@@H]2NC)[C@@H](N/C(N)=N\[H])[C@@H]1O` [Streptomycin], the entries for the “Mean minimum inhibitory concentration (MIC)” value in the series with Staphylococci (setting [4]) and with Staphylococci (Before Treatment) were 3.39 ± 0.66 µg/mL and 6.71 ± 0.59 µg/mL, respectively.

Regarding `c1ccc([C@H]2CN3CCSC3=N2)cc1` [Descaris], the “Percent of Subjects Disease Free at 6 Months After Treatment” value in the series with hepatitis B (Group 1, Pre-Treatment ALCT Activity None) came out at 100%; in the series with hepatitis B (Group 2, Pre-Treatment ALCT Activity Moderate), 67%; in the series with hepatitis B (Group 3, Pre-Treatment ALCT Activity High) it was 67%.

On to Poly(IC), for which, in the series with Rauscher MuLV (setting [9]), the “Reduction Splenomegaly (%)” value amounted to 27% and the “Spleen Weight (mean ± SD)” value was found to be 0.37 ± 0.22. For the same compound, in the series with Rauscher MuLV (setting [10]), the “Reduction Splenomegaly (%)” value is −78% and the “Spleen Weight (mean ± SD)” value is 0.72 ± 0.29.
